Consider 8 compounds from PubChem BioAssay (NCI).

Common to all, as to experiment: NCI-60 cell line screen, 48 h
Assay [1] relates to SF-539 CNS.
Assay [2] relates to PC-3 prostate.
In assay [3] the test system is SNB-19 CNS.
Assay [4] deals with EKVX NSCLC.
Assay [5] concerns A549 NSCLC.
Assay [6] has as its system COLO 205 colon.
The subject of assay [7] is A498 renal.
Assay [8] relates to NCI/ADR-RES ovarian.
The subject of assay [9] is OVCAR-5 ovarian.
Assay [10] relates to MOLT-4 leukemia.

Structures are written as SMILES.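 Results reflect a 48-hour exposure of cells in 96-well plates to compound at five concentrations. The concentration for 50% growth inhibition is given as GI50. TGI is the concentration that stops growth completely.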 Where only a bound is given, the exact number is not on record here.

With `Cc1ccc(NCCN(C)C)c2c(=O)c3ccccc3sc12`, the GI50 in assay [1] was 1.59 µM; in assay [2], 1.97 µM; in assay [3], 2.24 µM; in [4], 2.96 µM; in [5] it was 1.35 µM; in assay [6], 1.29 µM. For the same compound, the GI50 in assay [7] was 1.14 µM; in [8], 1.93 µM; in [9], 1.76 µM; in [10], 1.13 µM. The TGI in [1] was found to be 2.97 µM; in assay [2] it was 5.13 µM; in assay [3], 6.63 µM; in assay [4], 9.93 µM; in assay [5], 3.4 µM; in assay [6], 2.65 µM. Moreover, the TGI in assay [7] was determined as 2.52 µM; in assay [8], 4.6 µM; in [9], 3.38 µM; in assay [10], 4.33 µM.
For the compound `NNC(=O)c1ccc(OCc2nc3ccccc3[nH]2)cc1`, the TGI in assay [1], in assay [2], in assay [3], in [4], in [5] and in assay [6] was above 100 µM in each case. Also, the TGI in [7], in assay [8], in assay [9] and in [10] was above 100 µM throughout.
Consider `CCS(=O)(=O)c1ccc(OC)c(Nc2ncc(-c3ccccc3Cl)o2)c1`, for which the GI50 was 10.6 µM in assay [1]; 11.4 µM in [2]; above 21.9 µM in assay [3]; above 21.3 µM in assay [4]; 10 µM in assay [5]; 6.67 µM in assay [6]. In addition, the GI50 in assay [7] is 3.17 µM; in [8] it was 8.03 µM; in [9] it was 10.9 µM; in assay [10] it was 14.1 µM. Further, the TGI in [1] is above 25 µM; in assay [2], above 25 µM; in [3], above 25 µM; in assay [4], above 25 µM; in assay [5], above 25 µM; in [6] it was 15.4 µM. The TGI in [7] was 12.1 µM; in assay [8], above 25 µM; in assay [9] it was above 25 µM; in assay [10], above 25 µM.
Consider `COc1cc(/C=C/c2cc(/C=C/c3ccc(O)c(OC)c3)n(C(=O)Nc3ccc(Cl)cc3)n2)ccc1O`, for which the GI50 in [1] is 0.501 µM; in assay [2] it was 0.497 µM; in [3] it was 0.664 µM; in assay [4] it was 1.61 µM; in assay [5], 0.653 µM; in assay [6] it was 1.95 µM. For the same compound, the GI50 in assay [7] was 1.84 µM; in assay [8], 0.363 µM; in [9], 2.47 µM; in [10] it was 0.374 µM. In addition, the TGI in assay [1] was found to be 2.41 µM; in [2] it was 5.78 µM; in [3], 11.1 µM; in assay [4], 9.62 µM; in assay [5], 10.3 µM; in assay [6], 3.43 µM. Further, the TGI is 5.13 µM in assay [7], 3.68 µM in assay [8], 7.52 µM in assay [9] and 3.47 µM in [10].
Turning to `Cc1ccc(-c2nc(-c3cn(C)c4ncccc34)cs2)cc1`, the GI50 is 5.59 µM in [1]; 4.49 µM in assay [2]; 5.27 µM in assay [3]; 4.61 µM in assay [4]; 5.62 µM in assay [5]; 2.82 µM in [6]. The GI50 in assay [7] was 0.277 µM; in [8] it was 1.42 µM; in assay [9] it was 7.78 µM; in assay [10], 4.24 µM. Besides, the TGI in assay [1] is 18.7 µM; in assay [2] it was above 44.1 µM; in assay [3], 30.5 µM; in [4], 43.7 µM; in [5] it was 21.3 µM; in [6], 10.5 µM. For the same compound, the TGI in assay [7] was 8.24 µM; in [8], 6.8 µM; in [9], 26.5 µM; in [10], 30.3 µM.
`Nc1nc(=O)n([C@@H]2CS[C@H](CO)O2)cc1F`: the GI50 in assay [1], in assay [2], in assay [3], in [4], in [5] and in assay [6] was above 100 µM each time. In addition, the GI50 in [7], in [8], in assay [9] and in assay [10] was above 100 µM in each case. Further, the TGI in assay [1], in [2], in assay [3], in assay [4], in assay [5] and in assay [6] was above 100 µM throughout. The TGI in assay [7], in [8], in assay [9] and in assay [10] was above 100 µM each time.
For `COc1cc(C2C3=C(COC3=O)N(CCO)c3cc4c(cc32)OCO4)cc(OC)c1O` (stereo not given), the GI50 in assay [1] was 1.47 µM; in [2], 1.54 µM; in assay [3], 2.27 µM; in [4], 4.36 µM; in assay [5] it was 5.62 µM; in assay [6], 1.48 µM. Moreover, the GI50 was 1.16 µM in [7], 11.3 µM in [8], 23.1 µM in [9] and 2.15 µM in [10]. Further, the TGI is above 13.6 µM in [1]; above 50 µM in assay [2]; above 18.8 µM in [3]; above 50 µM in assay [4]; above 50 µM in assay [5]; 4.07 µM in assay [6]. Besides, the TGI in assay [7] is 3.92 µM; in [8], above 50 µM; in assay [9], above 50 µM; in assay [10], above 24.9 µM.
In the case of `COc1ccc(Nc2nc3cc(N)cc(N)c3nc2-c2ccccc2)cc1OC`, the GI50 in [1] is 16.2 µM; in assay [2], 14 µM; in assay [3], 35.4 µM; in assay [4], 25.6 µM; in [5], 35.2 µM; in assay [6], 19.8 µM. The GI50 is 11.7 µM in assay [7], 17.2 µM in assay [8], 29.7 µM in assay [9] and 6.91 µM in [10]. Also, the TGI in assay [1] was 37.5 µM; in assay [2], 36 µM; in [3], above 100 µM; in assay [4] it was 71.1 µM; in assay [5] it was above 100 µM; in [6], 41.2 µM. Also, the TGI in assay [7] is 55.7 µM; in assay [8], 42.7 µM; in assay [9] it was 72.7 µM; in [10] it was above 100 µM.
